Source: patent US20150166667A1, “METHODS AND COMPOSITIONS FOR TREATING CANCER” (RAMOT AT TEL-AVIV UNIVERSITY LTD., priority 2012, published 2015)

Columns and labels:
p21 (WAF1/Cip1) = p21 (WAF1/Cip1) expression in Ha-Ras infected keratinocytes, Western blot; assay type: cell-based, mouse; details: control cells, TPA 100 nM for 24 hr, FIG. 10A
Method: Primary mouse keratinocytes derived from control and IR-KO mice were infected with Ha-Ras, and 24 hr later were treated with TPA [100 nM] or vehicle for 24 hr. Expression of p21 (WAF1/Cip1) was evaluated by Western blot analysis, using a polyclonal antibody. Localization of p21 in the cells was examined by staining for DAPI and p21 (WAF1/Cip1) and visualization using fluorescent microscopy.

[1] = test system: primary keratinocytes and fibroblasts; experiment: 3D skin organotypic coculture, epidermal differentiation; assay type: cell-based, mice; details: for expression of K14 (marker of proliferating keratinocytes) / expression of the differentiation markers Keratin-1 and Loricrin: immunohistochemistry, 10^-6M insulin or 10^-7M IGF1, FIG. 3B
Method: Primary keratinocytes and fibroblasts were isolated from WT mice, and organotypic cocultures were plated. Immediately afterwards, 10^−6M insulin or 10^−7M IGF1 was added to the growth medium and maintained throughout the experiment. Coculture inserts were further processed; H&E staining of a tissue section is shown. The effects of insulin and IGF1 on differentiation of human keratinocytes were tested in a 3-dimensional organotypic skin co-culture. In this model system, primary murine or human keratinocytes were plated on top of a fibroblast-containing collagen gel dermal equivalent. Within a few days under proper growth conditions, the 3D-organotypic coculture became organized, mimicking the histological structure of the skin tissue in vivo, including the skin epidermal layers as well as keratin formation. By mimicking the natural tissue architecture, such conditions enable keratinocytes to recapitulate their tissue-specific differentiation program in vitro.

keratin 1 = experiment: Keratin 1 assembly in differentiating skin cells (insoluble fraction, Western blot); assay type: cell-based, mice; details: cells induced to differentiate in presence of insulin or IGF1; FIG. 19
Method: Primary skin cells were isolated from the SIRKO and IR (lox/lox) control mice and grown in culture. On day 3, the calcium concentration in the growth medium was raised from 0.05 mM to 0.12 mM to induce differentiation, and the culture was further maintained. On day 6, cells were harvested. To evaluate the effects of IR inactivation on the state of keratin filaments, cell lysates were fractionated into a Triton X-100-soluble fraction, containing the elementary keratin units, and a Triton-insoluble fraction, containing the mature keratin filaments. Western blot analysis was carried out on these fractions to estimate the amount of K1 present in each fraction, using Actin content as a loading control. […] A representative experiment of 4 repeats is depicted in the figures.

[2] = test system: primary murine keratinocytes; experiment: In vitro scratch closure assay, primary murine keratinocytes; assay type: cell-based
Method: (§1) Insulin and IGF1 treatment: Primary murine keratinocytes were grown for 6 days in culture. On the day of the experiment insulin (10^−6M) or IGF-1 (10^−7M) were added, after which a scratch was made by a micropipette tip (day 0). In some of the plates, proliferation was inhibited by adding 25 microgram/ml mitomycin C, 4 hours prior to culture wounding. In another set of experiments (E-F) insulin receptor was inactivated by siRNA in human HaCaT skin cells. The effects of insulin and IGF1 were measured as described above. In all experiments digital photos were taken at day 0 and 24 hours later (day 1), from which 20 randomly chosen photos were taken from each treatment group and further analyzed to determine the average remaining scratch width.
(§2) The effect of insulin on skin cell migration was assessed using an in vitro scratch closure assay. Keratinocytes were grown to confluency, were left untreated or were treated with insulin or IGF-1, in the absence (6A; top panel) or presence (6A; bottom panel) of mitomycin C. The cell layer was scratched by a tip, and the degree of closure was subsequently measured. The amount of migration of control cells in each group (with or without mitomycin C) was assigned the value 100%. The average of 4 separate experiments is depicted. […] Similar results were obtained in human HaCaT skin cells in which the insulin receptor was inactivated by siRNA.

SCC Cal 27 cells = experiment: Proliferation of SCC Cal 27 cells by thymidine incorporation; assay type: cell-based, human; details: serum starved cells, 24 hours; FIG. 15C
Method: SCC Cal 27 cells were grown in culture to 70% confluency. The cells were serum starved for 24 hours after which a blocking anti IR antibody (Thermo Scientific; Insulin Receptor (α-Subunit) Ab-3 (Clone 47-9); Cat. #MS-633-PABX) was added at the concentrations indicated, with or without insulin as indicated, and the cells were incubated further for 24 hours.
Left, center, and right bars are insulin, 10 nM, and 20 nM respectively. […] In each case, results were normalized to control groups. The P values for 10 nM and 20 nM are as follows: control vs 10 nM Ab: p=8.616 E-5; control vs 20 nM Ab: p=1.745 E-5; control vs 10 nM Ab+insulin: p=0.00072; control vs 20 nM Ab+insulin: p=0.00558.

human HaCaT skin cells = experiment: In vitro scratch closure assay, HaCaT cells with IR inactivated by siRNA; assay type: cell-based; details: FIG. 6B
Method: as §1, §2

Molecule	levels of p21, a marker of cellular senescence (p21 (WAF1/Cip1))	expression of K14 (marker of proliferating keratinocytes) [1]	expression of the differentiation markers Keratin-1 and Loricrin [1]	assembly of K1 (keratin 1 in the insoluble fraction) (keratin 1)	epidermal differentiation by histological analysis ([1]; 10^-6M insulin or 10^-7M IGF1 in growth medium, FIG. 3A)	effect on scratch closure in presence of mitomycin C ([2]; 25 microgram/ml mitomycin C 4 hours prior to wounding, FIG. 6A bottom)	scratch closure ([2]; insulin 10^-6M, IGF-1 10^-7M, 24 hours, absence of mitomycin C, FIG. 6A top)	SCC cancer cell proliferation with insulin alone (SCC Cal 27 cells)	effect on scratch closure in IR-inactivated cells (human HaCaT skin cells)
CCCCCCCCCCCCCC(=O)O[C@@H]1[C@@H](C)[C@@]2(O)[C@@H](C=C(CO)C[C@]3(O)C(=O)C(C)=C[C@@H]23)[C@@H]2C(C)(C)[C@]12OC(C)=O [TPA, 12-O-tetradecanoylphorbol-13-acetate]	decreased levels of p21								
IGF1		maintained abnormally in apical layers	delayed expression	opposite effect					
insulin		more rapid disappearance	enhanced	enhanced assembly of K1	supported epidermal differentiation	not eliminated	facilitated scratch closure more than IGF	increased the proliferation	eliminated by IR inactivation
